Measured values: US8546380B2, “Aminodihydrothiazine derivatives” (Shionogi & Co., Ltd., priority 2005, dated 2013)
pIC50: −log10 of the molar value.

biological target: recombinant human BACE-1 protein (Homo sapiens (Human), UniProt P56817); assay: Measurement of Inhibition of β-Secretase Activity; assay type: biochemical; settings: not given
Experimental: Zero point five μL of the test compounds (dissolved in N,N′-dimethylsulfoxide) were incubated with 48.5 μL of the fluorescence-quenched peptide substrate solution (Biotin-XSEVNLDAEFRHDSGC-Eu:X=ε-amino-n-capronic acid, Eu=Europium cryptate) and 1 μL of recombinant human BACE-1 protein (R&D systems) for 3 h at 30° C. in the 96 well half-area plate (black color plate, Costar). The substrate peptide was synthesized by reacting with Biotin-XSEVNLDAEFRHDSGC (Peptide Institute) and Cryptate TBPCOOH mono SMP (CIS bio international). […] The enzymatic reaction was performed in sodium acetate buffer (50 mM sodium acetate (pH5.0), 0.008% Triton X-100). After the reaction, a 50 μL of 8.0 μg/mL Streptavidin-XL665 (CIS bio international) dissolved in phosphate buffer (150 mM K2HPO4—KH2PO4 (pH 7.0), 0.008% Triton X-100, 0.8 M KF) was add to each well and incubated for 1 h at 30° C.

Chain of recombinant human BACE-1 protein (P56817 46-501): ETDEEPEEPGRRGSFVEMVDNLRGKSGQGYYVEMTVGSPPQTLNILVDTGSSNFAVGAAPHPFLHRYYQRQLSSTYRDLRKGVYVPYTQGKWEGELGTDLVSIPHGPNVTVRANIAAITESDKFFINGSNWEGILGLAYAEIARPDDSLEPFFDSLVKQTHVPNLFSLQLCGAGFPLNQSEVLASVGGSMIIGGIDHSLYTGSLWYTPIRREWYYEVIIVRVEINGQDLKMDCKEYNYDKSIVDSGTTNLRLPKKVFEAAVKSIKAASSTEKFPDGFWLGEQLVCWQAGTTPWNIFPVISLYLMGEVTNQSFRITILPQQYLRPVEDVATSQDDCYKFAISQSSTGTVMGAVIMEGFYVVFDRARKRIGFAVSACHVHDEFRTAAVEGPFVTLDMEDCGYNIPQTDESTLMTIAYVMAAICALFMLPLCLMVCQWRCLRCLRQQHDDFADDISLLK

Row | Compound | pIC50
1 | CC1(c2cccc(NC(=O)c3nc4ccccc4s3)c2)CCSC(N)=N1 (stereo not shown) [Compound 1108] | > 4.00

same assay, conditions: fluorescence-quenched peptide substrate 18 nM, BACE-1 7.4 nM, 3 h at 30° C., pH5.0; read-out: IC50 value

Row | Compound | pIC50
2 | CC1(c2cccc(NC(=O)Nc3ccc(Cl)cc3)c2)CCSC(N)=N1 (stereo not shown) [Compound 181] | > 4.00
3 | CC1(c2ccc(F)c(NS(=O)(=O)c3ccc(Cl)cc3)c2)CCSC(N)=N1 (stereo not shown) [Compound 493] | > 4.00
4 | COCC(=O)Nc1cccc(C2(C)CCSC(N)=N2)c1 (stereo not shown) [Compound 988] | > 4.00
5 | CC1(c2cc(NC(=O)c3ccc[nH]3)ccc2F)CCSC(N)=N1 (stereo not shown) [Compound 115] | > 4.00
6 | CC1(c2cccc(OCC(=O)Nc3cccc(Cl)c3)c2)CCSC(N)=N1 (stereo not shown) [Compound 1145] | > 4.00
7 | CC1(c2cccc(NC(=O)c3cnc(N)cn3)c2)CCSC(N)=N1 (stereo not shown) [Compound 1265] | > 4.00
8 | CC1(c2cccc(OCC(=O)Nc3ccc(-n4cnc(Cl)c4Cl)cc3)c2)CCSC(N)=N1 (stereo not shown) [Compound 106] | > 4.00
9 | CC1(c2cccc(NC(=O)C(Cl)Cl)c2)CCSC(N)=N1 (stereo not shown) [Compound 861] | > 4.00
10 | CC1(c2cccc(NC(=O)c3ccc(NCc4ccccc4)cn3)c2)CCSC(N)=N1 (stereo not shown) [Compound 608] | > 4.00
11 | CC1(c2cccc(C(=O)NCCc3ccc(Cl)cc3)c2)CCSC(N)=N1 (stereo not shown) [Compound 451] | > 4.00
12 | CC1(c2cccc(NC(=O)c3ccc([N+](=O)[O-])cc3)c2)CCSC(N)=N1 (stereo not shown) [Compound 209] | > 4.00
13 | CC1(c2cccc(NCc3ccccc3)c2)CCSC(N)=N1 (stereo not shown) [Compound 357] | > 4.00
14 | CC1(c2cccc(NC(=O)Nc3ccc(Br)cc3)c2)CCSC(N)=N1 (stereo not shown) [Compound 887] | > 4.00
15 | CC1(c2cccc(/C=C/C(=O)Nc3ccc(F)cc3)c2)CCSC(N)=N1 (stereo not shown) [Compound 415] | > 4.00
16 | CC1(c2cccc(NC(=O)c3ccc(F)c(O)c3)c2)CCSC(N)=N1 (stereo not shown) [Compound 469] | > 4.00
17 | COc1ccc(NC(=O)COc2cccc(C3(C)CCSC(N)=N3)c2)cc1 (stereo not shown) [Compound 67] | > 4.00
18 | CC1(c2cccc(NC(=O)c3ccc(-c4ccccn4)s3)c2)CCSC(N)=N1 (stereo not shown) [Compound 1096] | > 4.00
19 | CC1(c2cccc(NC(=O)c3ccc(OC(F)(F)F)cc3)c2)CCSC(N)=N1 (stereo not shown) [Compound 175] | > 4.00
20 | Cc1ccc(S(=O)(=O)Nc2cc(C3(C)CCSC(N)=N3)ccc2F)cc1 (stereo not shown) [Compound 61] | > 4.00
21 | CC1(c2cccc(OCC(=O)Nc3ccc(O)cc3)c2)CCSC(N)=N1 (stereo not shown) [Compound 402] | > 4.00

Row | Compound | pIC50
22 | CC1(c2cccc(NC(=O)c3ccc(NCc4ccccn4)cn3)c2)CCSC(N)=N1 (stereo not shown) [Compound 797] | > 4.00
23 | CC1(c2cccc(C(=O)Nc3nc4ccc(O)cc4s3)c2)CCSC(N)=N1 (stereo not shown) [Compound 1089] | > 4.00
24 | CC1(c2cccc(NC(=O)c3ccc(NCc4cccnc4)cn3)c2)CCSC(N)=N1 (stereo not shown) [Compound 426] | > 4.00
25 | CC1(c2cc(NC(=O)c3ccc(Cl)cc3)ccc2F)CCSC(N)=N1 (stereo not shown) [Compound 31] | > 4.00
26 | COCCCc1ccc(C(=O)Nc2cccc(C3(C)CCSC(N)=N3)c2)nc1 (stereo not shown) [Compound 1150] | > 4.00
27 | CC1(c2cccc(OCC(=O)Nc3ccc(C(F)(F)F)cc3)c2)CCSC(N)=N1 (stereo not shown) [Compound 105] | > 4.00
28 | COc1cnc(C(=O)Nc2cccc(C3(C)CCSC(N)=N3)c2)c(OC)n1 (stereo not shown) [Compound 984] | > 4.00
29 | CCCCNC(=O)c1ccc(C2(C)CCSC(N)=N2)s1 (stereo not shown) [Compound 803] | > 4.00
30 | Cc1cc(C(=O)Nc2cccc(C3(C)CCSC(N)=N3)c2)ccc1Cl (stereo not shown) [Compound 172] | > 4.00
31 | CC1(c2cccc(NC(=O)c3ccc(NCc4ccncc4)cn3)c2)CCSC(N)=N1 (stereo not shown) [Compound 393] | > 4.00
32 | CC1(c2cccc(NC(=O)COc3ccc(F)cc3)c2)CCSC(N)=N1 (stereo not shown) [Compound 17] | > 4.00
33 | Cc1ccc(CCNc2cccc(C3(C)CCSC(N)=N3)c2)cc1 (stereo not shown) [Compound 876] | > 4.00
34 | C[C@@H](NC(=O)c1cc(NC(=O)c2ccc(Cl)cn2)cc(C2(C)CCSC(N)=N2)c1)c1ccccc1 (stereo partly shown) [Compound 1099] | > 4.00
35 | COc1ccc(C(=O)Nc2cccc(C3(C)CCSC(N)=N3)c2)nc1 (stereo not shown) [Compound 781] | > 4.00
36 | CC1(c2cccc(NCc3ccc(F)cc3)c2)CCSC(N)=N1 (stereo not shown) [Compound 1243] | > 4.00
37 | CC1(c2cccc(NC(=O)c3ncccc3C(=O)c3ccccc3)c2)CCSC(N)=N1 (stereo not shown) [Compound 1013] | > 4.00
38 | CC1(c2cccc(NC(=O)c3ccc4[nH]cnc4c3)c2)CCSC(N)=N1 (stereo not shown) [Compound 1046] | > 4.00
39 | CC1(c2cccc(OCC(=O)Nc3nccs3)c2)CCSC(N)=N1 (stereo not shown) [Compound 824] | > 4.00
40 | CC1(c2ccc(F)c(C(=O)Nc3nccs3)c2)CCSC(N)=N1 (stereo not shown) [Compound 251] | > 4.00
41 | COc1ccc(C2(C)CCSC(N)=N2)cc1C(=O)Nc1ccc(Cl)cn1 (stereo not shown) [Compound 186] | > 4.00

Row | Compound | pIC50
42 | CC1(c2cccc(NC(=O)c3ccccn3)c2)CCSC(N)=N1 (stereo not shown) [Compound 352] | > 4.00
43 | CC(=O)NCc1cccc(C2(C)CCSC(N)=N2)c1 (stereo not shown) [Compound 360] | > 4.00
44 | Cn1cccc1C(=O)Nc1ccc(F)c(C2(C)CCSC(N)=N2)c1 (stereo not shown) [Compound 497] | > 4.00
45 | Cc1ccc(CNc2cccc(C3(C)CCSC(N)=N3)c2)cc1 (stereo not shown) [Compound 259] | > 4.00
46 | CC1(c2cccc(NC(=O)c3ncc(Cl)cc3N)c2)CCSC(N)=N1 (stereo not shown) [Compound 472] | > 4.00
47 | CC1(c2cccc(OCC(=O)Nc3ccc(OC(F)(F)F)cc3)c2)CCSC(N)=N1 (stereo not shown) [Compound 326] | > 4.00
48 | COc1cnc(C(=S)Nc2cccc(C3(C)CCSC(N)=N3)c2)cn1 (stereo not shown) [Compound 1270] | > 4.00
49 | CC1(c2cccc(C(=O)Nc3ccc(Cl)cn3)c2)CCSC(N)=N1 (stereo not shown) [Compound 542] | > 4.00
50 | CC1(c2cc(NC(=O)c3ccco3)cc(-c3ccc(Cl)cc3)c2)CCSC(N)=N1 (stereo not shown) [Compound 725] | > 4.00
51 | CC1(c2cccc(NC(=O)c3ccc(Br)cc3)c2)CCSC(N)=N1 (stereo not shown) [Compound 959] | > 4.00
52 | CC1=NC(C)(c2cccc(CCC(=O)Nc3ccccc3)c2)CCS1 (stereo not shown) [Compound 732] | > 4.00
53 | CC1(c2cccc(NC(=O)c3c[nH]c(=O)cn3)c2)CCSC(N)=N1 (stereo not shown) [Compound 1077] | > 4.00
54 | Cc1cccnc1C(=O)Nc1cccc(C2(C)CCSC(N)=N2)c1 (stereo not shown) [Compound 240] | > 4.00
55 | CC1(c2cccc(NC(=O)c3ccc(C(F)(F)F)cc3)c2)CCSC(N)=N1 (stereo not shown) [Compound 479] | > 4.00
56 | CC1(c2cc(NC(=S)c3ccc(Br)cc3)cc(S(C)(=O)=O)c2)CCSC(N)=N1 (stereo not shown) [Compound 71] | > 4.00
57 | CC1(c2cccc(NC(=O)c3ccc4occc4c3)c2)CCSC(N)=N1 (stereo not shown) [Compound 1009] | > 4.00
58 | CC1(c2cc(NC(=O)c3ccc4cc[nH]c4c3)ccc2F)CCSC(N)=N1 (stereo not shown) [Compound 560] | > 4.00
59 | CC1(c2cccc(NCCc3ccccc3)c2)CCSC(N)=N1 (stereo not shown) [Compound 409] | > 4.00

same assay, conditions: recombinant human BACE-1 protein, 3 h at 30° C., pH5.0; read-out: IC50 value

Row | Compound | pIC50
60 | COCc1cc(NC(=O)c2ccc(F)cc2)cc(C2(C)CCSC(N)=N2)c1 (stereo not shown) [Compound 896] | 5.07
61 | CC1(c2cccc(OCC(=O)Nc3cccc(O)c3)c2)CCSC(N)=N1 (stereo not shown) [Compound 269] | 5.15
62 | CC1(c2cc(Cl)cc(NC(=O)c3ccc(Cl)cn3)c2)CCSC(N)=N1 (stereo not shown) [Compound 739] | 7.31
63 | CC1(c2cc(NC(=O)c3ccco3)cc(C(F)(F)F)c2)CCSC(N)=N1 (stereo not shown) [Compound 163] | 5.64
64 | CC1(c2cc(Cl)cc(NC(=O)c3nc4ccccc4s3)c2)CCSC(N)=N1 (stereo not shown) [Compound 96] | 6.79
